Patent US20130131018A1, “SUBSTITUTED ISOQUINOLINES AND THEIR USE AS TUBULIN POLYMERIZATION INHIBITORS” (Exonhit S.A., priority 2010, published 2013)
Structures can show the parent of a compound that is named as a salt. Where two headings read alike, the source gives them in different places.

Legend:
[1] = test system: K562 cell line; assay: MTT assay: cytotoxicity against the K562 cell line; format: cell-based; details: Homo sapiens, K562 cells, 72 h, growth inhibition
Experimental: Assessment of Cell Viability via MTT Assay: Cytotoxicity of compounds against the K562 cell line was assessed using the [3-(4,5-dimethylthiazol-2-yl)-2,5-diphenyl tetrazolium bromide] (MTT) assay. Fifteen thousand tumor cells were seeded into wells of flat-bottomed 96-well plates. An amount of 2 μL of a dilution series of each compound dissolved in DMSO was added to 198 μL of appropriate growth medium at three replicates per concentration and the plates were incubated in a 5% CO2 incubator at 37° C. After 72 h, the number of metabolically active cells was determined by MTT assay. Absorbance of each well was measured at 550 nm on a Tecan Sunrise reader. Dose-response curves for growth inhibition were generated as a percentage of untreated control. IC50 was determined by nonlinear regression (Prism, Graph Pad Software, Inc.).

[2] = test system: Endothelial cells (HUVEC); assay: Neovessels formation inhibition (capillary tube formation on Matrigel); format: cell-based; details: Homo sapiens
Experimental: The capability of compounds to inhibit the formation of capillaries was evaluated in vitro. Twenty thousand Endothelial cells (HUVEC) were placed on a Matrigel matrix and allowed to form capillary tubes in the presence or absence of the compounds overnight. The cells were stained with calcein AM, and the effect of the compounds on capillary tube formation was assessed using an inverted fluorescent microscope (Nikon). The reference compound used in this assay AVE-8063 is 3-amino-deoxycombretastatin A-4.

[3] = test system: HUVEC; assay: Pre-established vessels disruption (capillary tubes on Matrigel); format: cell-based; details: Homo sapiens, HUVEC tubes formed 5 hours, then compounds overnight
Experimental: To explore the effect of the compounds on pre-established vasculature, twenty thousand cells (HUVEC) were seeded and incubated over Matrigel for 5 hours to allow the capillary tubes to form. Then, compounds were added and incubated overnight. The disappearance of existing vasculature was monitored with fluorescent microscopy.

[4] = molecular target: T1, purified tubulin (Sus scrofa, UniProt P02550+P02554); assay: Tubulin polymerisation assay (CytoDYNAMIX Screen kit, absorbance at 340 nm); format: biochemical; details: for inhibition at 5 µM: 5 μM compound, 4 mg/ml tubulin, read-out: % Inhibition of tubulin polymerization at 5 μM; for IC50: tubulin polymerization
T1 construct: purchased Cytoskeleton #BK006P
T1 sequence (P02554 whole entry): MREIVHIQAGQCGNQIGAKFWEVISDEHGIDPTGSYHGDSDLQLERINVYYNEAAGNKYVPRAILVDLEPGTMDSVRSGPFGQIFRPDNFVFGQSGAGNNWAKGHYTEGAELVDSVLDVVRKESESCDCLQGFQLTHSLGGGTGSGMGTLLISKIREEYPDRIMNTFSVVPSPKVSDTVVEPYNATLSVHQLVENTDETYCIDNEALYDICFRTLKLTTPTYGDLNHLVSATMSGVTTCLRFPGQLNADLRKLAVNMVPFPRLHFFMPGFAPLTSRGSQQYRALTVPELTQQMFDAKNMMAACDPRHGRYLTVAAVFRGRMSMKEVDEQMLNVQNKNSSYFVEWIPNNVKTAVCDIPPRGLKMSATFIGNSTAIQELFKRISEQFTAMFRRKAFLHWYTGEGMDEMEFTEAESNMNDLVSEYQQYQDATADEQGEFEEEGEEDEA
T1 sequence (P02550 whole entry): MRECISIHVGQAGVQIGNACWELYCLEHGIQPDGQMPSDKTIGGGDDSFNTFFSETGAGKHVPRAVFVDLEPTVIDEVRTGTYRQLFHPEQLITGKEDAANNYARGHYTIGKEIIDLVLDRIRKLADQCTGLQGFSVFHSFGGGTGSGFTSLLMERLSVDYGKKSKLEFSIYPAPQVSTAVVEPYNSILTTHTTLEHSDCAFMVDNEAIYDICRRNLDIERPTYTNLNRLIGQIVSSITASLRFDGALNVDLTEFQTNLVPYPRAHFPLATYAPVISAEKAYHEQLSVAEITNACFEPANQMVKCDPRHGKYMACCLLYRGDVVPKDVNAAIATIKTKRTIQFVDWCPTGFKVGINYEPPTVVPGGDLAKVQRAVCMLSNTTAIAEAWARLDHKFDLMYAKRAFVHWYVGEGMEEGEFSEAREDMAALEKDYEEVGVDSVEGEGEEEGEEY
Experimental: The polymerization of purified tubulin was monitored spectrophotometrically by the change in absorbance at 340 nm using the CytoDYNAMIX Screen kit (#BK006P, Cytoskeleton) according to the instructions of the manufacturer. […] The absorbance was measured at 1 minute intervals for 60 minutes. The test compound was added to a 4 mg/ml tubulin solution containing 10% glycerol and 1 mM GTP in Buffer 1 (Buffer 1: 80 mM PIPES; 2 mM MgCl2; 0.5 mM EGTA, pH 6.9). Increased absorbance indicates increase in microtubule formation from tubulin heterodimers.

[5] = HUVEC on Matrigel, compounds overnight, read-out: Neovessels Formation Inhibition Number of Branch Junctions IC50
[6] = HUVEC on Matrigel, compounds overnight, read-out: Neovessels Formation Inhibition Total Tubule Length IC50
[7] = read-out: Pre-established Vessels Disruption Number of Branch Junctions IC50
[8] = read-out: Pre-established Vessels Disruption Total Tubule Length IC50

Row | Compound | IC50 [1] [nM] | IC50 [2, 5] [nM] | IC50 [2, 6] [nM] | IC50 [3, 7] [nM] | IC50 [3, 8] [nM] | inhibition at 5 µM [4] [%] | IC50 [4] [nM] | IC50 ([2]; HUVEC, read-out: Neovessels Formation Inhibition Number of Branch Junctions IC50 (nM)) [nM] | IC50 ([2]; HUVEC, read-out: Neovessels Formation Inhibition Total Tubule Length IC50 (nM)) [nM]
1 | CCCOc1c(OC)cc(Cc2cncc3c(O)c(OCC)ccc23)cc1OC [Compound 19, 4-(3,5-Dimethoxy-4-propoxybenzyl)-7-ethoxyisoquinolin-8-ol hydrochloride] | 21.5 | 14.4 | 23 | 6.33 | 15.9 | 61.9 | 1850 |  | 
2 | CCOc1ccc2c(C(=O)c3cc(OC)c(OCC(C)C)c(OC)c3)cncc2c1OC(C)=O [Compound 78, 7-Ethoxy-4-(4-isobutoxy-3,5-dimethoxybenzoyl)isoquinolin-8-yl acetate] | 7.02 |  | 8.07 | 11.1 | 19.4 |  |  |  | 
3 | CCOc1ccc2c(Cc3cc(OC)c(OCC)c(OC)c3)cncc2c1N [Compound 18, 4-(4-Ethoxy-3,5-dimethoxybenzyl)-7-ethoxyisoquinolin-8-amine dihydrochloride] | 13.2 | 13 | 18.7 | 17.8 | 32.1 | 61.4 | 990 |  | 
4 | CCOc1ccc2c(Cc3cc(OC)c(OCC(C)C)c(OC)c3)cncc2c1O [Compound 20, 4-(4-Isobutoxy-3,5-dimethoxybenzyl)-7-ethoxyisoquinolin-8-ol hydrochloride] | 20.8 | 24.9 | 31.9 | 22.3 | 31.7 | 56.9 | 1520 |  | 
5 | CCOc1cc(Cc2cncc3c(O)c(OCC)ccc23)cc(OC)c1OC [Compound 15, 4-(3-Ethoxy-4,5-dimethoxybenzyl)-7-ethoxyisoquinolin-8-ol hydrochloride] | 105 |  |  |  |  | 69 | 970 |  | 
6 | CCOc1ccc2c(Cc3cc(OC)c(OCC(F)(F)F)c(OC)c3)cncc2c1O [Compound 30, 4-(3,5-Dimethoxy-4-(2,2,2-trifluoroethoxy)benzyl)-7-ethoxyisoquinolin-8-ol hydrochloride] | 63.8 |  |  |  |  | 21 |  |  | 
7 | CC(=O)O[C@H]1C(=O)[C@@]2(C)[C@H]([C@H](OC(=O)c3ccccc3)[C@]3(O)C[C@H](OC(=O)[C@H](O)[C@@H](NC(=O)c4ccccc4)c4ccccc4)C(C)=C1C3(C)C)[C@]1(OC(C)=O)CO[C@@H]1C[C@@H]2O [Taxol, reference compound] | 6.9 | 0.79 | 7.16 |  |  |  |  |  | 
8 | CCCOc1c(OC)cc(C(=O)c2cncc3c(OC(C)=O)c(OCC)ccc23)cc1OC [Compound 65, 4-(3,5-Dimethoxy-4-propoxybenzoyl)-7-ethoxyisoquinolin-8-yl acetate] | 3.81 | 2.88 | 4.23 | 3.36 | 9.92 | 13 |  |  | 
9 | CCOc1ccc2c(C(=O)c3cc(OC)c(OCC)c(OC)c3)cncc2c1O [Compound 56, (4-Ethoxy-3,5-dimethoxyphenyl)(7-ethoxy-8-hydroxyisoquinolin-4-yl)methanone hydrochloride] | 4.39 | 10.7 | 12.2 | 14.4 | 16.1 | 65.1 | 1940 |  | 
10 | CCOc1ccc2c(C(=O)c3cc(OC)c(OC)c(OC)c3)cncc2c1 [Compound 40, (7-Ethoxyisoquinolin-4-yl)(3,4,5-trimethoxyphenyl)methanone hydrochloride] | 19.6 | 8.2 | 12.9 | 32.8 | 53.4 | 58.8 | 1130 |  | 
11 | CCOc1ccc2c(Cc3cc(OC)c(OCCC(C)C)c(OC)c3)cncc2c1O [Compound 33, 7-Ethoxy-4-(4-(isopentyloxy)-3,5-dimethoxybenzyl)isoquinolin-8-ol hydrochloride] | 160 |  |  |  |  | 59 | 1310 |  | 
12 | CCCCOc1c(OC)cc(Cc2cncc3c(O)c(OCC)ccc23)cc1OC [Compound 38, 4-(4-Butoxy-3,5-dimethoxybenzyl)-7-ethoxyisoquinolin-8-ol hydrochloride] | 30.4 |  |  |  |  | 67.4 | 1110 |  | 
13 | COc1ccc2c(C(=O)c3cc(OC)c(OC)c(OC)c3)cncc2c1 [Compound 28, (7-Methoxyisoquinolin-4-yl)(3,4,5-trimethoxyphenyl)methanone hydrochloride] | 42.1 |  |  |  |  | 44.5 |  |  | 
14 | CCOc1ccc2c(Cc3cc(OC)c(OC)c(OC)c3)cncc2c1NS(N)(=O)=O [Compound 8, 7-Ethoxy-4-(3,4,5-trimethoxy-benzyl)isoquinolin-8-yl]-sulfamide hydrochloride] | 53.4 | 100 | 138 |  |  |  |  |  | 
15 | CCOc1ccc2c(Cc3cc(OC)c(OCC)c(OC)c3)cncc2c1O [Compound 14, 4-(4-Ethoxy-3,5-dimethoxybenzyl)-7-ethoxyisoquinolin-8-ol hydrochloride] | 30.3 | 31.1 | 39.5 |  |  |  | 1050 |  | 
16 | CCOc1ccc2c(Cc3cc(OC)c(OCC(C)C)c(OC)c3)cncc2c1N [Compound 31, 4-(4-Isobutoxy-3,5-dimethoxybenzyl)-7-ethoxyisoquinolin-8-amine dihydrochloride] | 37 |  |  |  |  | 55.4 | 1540 |  | 
17 | COc1ccc(/C=C\c2cc(OC)c(OC)c(OC)c2)cc1O [Combretastatin, reference compound] | 2.07 |  |  |  |  | 68.9 |  |  | 
18 | CCOc1ccc2c(C(=O)c3cc(OC)c(OC)c(OC)c3)cncc2c1NC(=O)CN [Compound 112, 2-Amino-N-(7-ethoxy-4-(3,4,5-trimethoxybenzoyl)isoquinolin-8-yl)acetamide] | 7.9 | 16.4 | 31.3 | 68.5 | 62.8 |  |  |  | 
19 | CCOc1ccc2c(Cc3cc(Br)c(OCC)c(OC)c3)cncc2c1O [Compound 77, 4-(3-Bromo-4-ethoxy-5-methoxybenzyl)-7-ethoxyisoquinolin-8-ol hydrochloride] | 48.6 |  |  |  |  |  |  |  | 
20 | COc1ccc(N(C)c2nc(C)nc3ccccc23)cc1 [Azixa, reference compound] | 2.15 |  |  | 3.75 | 6.01 |  |  | 1.38 | 2.16
21 | CCOc1ccc2c(C(=O)c3cc(OC)c(OC)c(OC)c3)cncc2c1NC(=O)OCC(C)C [Compound 113, Isobutyl (7-ethoxy-4-(3,4,5-trimethoxybenzoyl)isoquinolin-8-yl)carbamate hydrochloride] | 231 |  |  |  |  |  |  |  | 
22 | CCOc1ccc2c(Cc3cc(I)c(OC)c(OC)c3)cncc2c1O [Compound 72, 7-Ethoxy-4-(3-iodo-4,5-dimethoxybenzyl)isoquinolin-8-ol hydrochloride] | 18.3 |  |  |  |  |  |  |  | 
23 | CCOc1ccc2c(C(=NO)c3cc(OC)c(OC)c(OC)c3)cncc2c1 [Compound 41, (7-ethoxyisoquinolin-4-yl)(3,4,5-trimethoxyphenyl)methanone oxime hydrochloride] | 123 |  |  |  |  |  |  |  | 
24 | COc1ccc2c(Cc3cc(OC)c(OC)c(OC)c3)cncc2c1 [Compound 27, 4-(3,4,5-Trimethoxybenzyl)-7-methoxyisoquinoline hydrochloride] | 864 |  |  |  |  |  |  |  | 
25 | CCCOc1c(OC)cc(C(=O)c2cncc3c(N)c(OCC)ccc23)cc1OC [Compound 66, (8-Amino-7-ethoxyisoquinolin-4-yl)(3,5-dimethoxy-4-propoxyphenyl)methanone hydrochloride] | 4.27 | 2.23 | 3.58 | 3.76 | 5.47 |  |  |  | 
26 | CCOc1ccc2c(Cc3cc(N)c(OCC)c(OC)c3)cncc2c1O [Compound 75, 4-(3-Amino-4-ethoxy-5-methoxybenzyl)-7-ethoxyisoquinolin-8-ol hydrochloride] | 236 |  |  |  |  |  |  |  | 
